Experimental findings from patent US7326699B2, “4-Amino-5-phenyl-7-cyclobutyl-pyrrolo(2,3-d)pyrimidine derivatives” (Novartis AG, priority 2001, dated 2008) are described below.

Broadly, the IC50 is the concentration that inhibits the measured activity by half.

Molecules are shown by their SMILES.

The assay deals with T1, human IGF-IR (Homo sapiens, UniProt P08069).
T1 construct: complete human IGF-IR cDNA: GenBank Acc; No. NM_000875; expressed in transfected cells; host or cells: NIH-3T3 mouse fibroblasts
T1 sequence (P08069 31-1367): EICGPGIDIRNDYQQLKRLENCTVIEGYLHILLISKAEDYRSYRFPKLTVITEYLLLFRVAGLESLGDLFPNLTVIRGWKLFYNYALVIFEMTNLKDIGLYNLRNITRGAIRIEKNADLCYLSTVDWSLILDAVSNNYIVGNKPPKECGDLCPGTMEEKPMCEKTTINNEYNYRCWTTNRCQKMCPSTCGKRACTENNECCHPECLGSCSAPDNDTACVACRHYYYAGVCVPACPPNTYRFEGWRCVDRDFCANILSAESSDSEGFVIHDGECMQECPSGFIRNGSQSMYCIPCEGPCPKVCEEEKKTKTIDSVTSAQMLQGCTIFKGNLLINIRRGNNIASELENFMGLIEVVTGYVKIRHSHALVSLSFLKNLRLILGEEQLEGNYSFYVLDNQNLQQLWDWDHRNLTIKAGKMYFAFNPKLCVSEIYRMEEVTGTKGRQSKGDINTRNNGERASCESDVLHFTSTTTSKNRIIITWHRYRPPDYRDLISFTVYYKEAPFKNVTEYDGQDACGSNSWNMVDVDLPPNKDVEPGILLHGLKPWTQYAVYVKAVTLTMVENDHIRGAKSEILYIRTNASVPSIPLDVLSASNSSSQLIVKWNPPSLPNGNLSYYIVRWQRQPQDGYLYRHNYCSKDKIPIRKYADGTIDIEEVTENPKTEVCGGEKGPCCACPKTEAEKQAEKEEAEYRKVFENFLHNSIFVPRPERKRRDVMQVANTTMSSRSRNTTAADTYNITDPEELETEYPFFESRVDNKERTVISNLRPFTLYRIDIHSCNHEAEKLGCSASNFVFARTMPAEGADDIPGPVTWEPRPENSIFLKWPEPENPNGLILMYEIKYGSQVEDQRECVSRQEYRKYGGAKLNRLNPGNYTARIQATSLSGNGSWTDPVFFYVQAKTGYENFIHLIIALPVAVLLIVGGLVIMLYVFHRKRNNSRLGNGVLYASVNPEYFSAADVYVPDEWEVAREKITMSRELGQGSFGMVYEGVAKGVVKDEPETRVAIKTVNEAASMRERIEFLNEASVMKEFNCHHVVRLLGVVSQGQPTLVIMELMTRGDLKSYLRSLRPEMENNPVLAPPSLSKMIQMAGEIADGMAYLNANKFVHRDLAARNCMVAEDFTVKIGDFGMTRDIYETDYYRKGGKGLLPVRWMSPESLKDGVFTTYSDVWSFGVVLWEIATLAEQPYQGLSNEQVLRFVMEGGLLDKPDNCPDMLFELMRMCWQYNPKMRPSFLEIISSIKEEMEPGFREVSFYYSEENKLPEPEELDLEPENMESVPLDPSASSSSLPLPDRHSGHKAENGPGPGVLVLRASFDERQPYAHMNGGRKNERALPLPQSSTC
Nature of the assay: cellular "Capture ELISA": IGF-I induced IGF-IR autophosphorylation. Type of assay: cell-based. The settings on record: NIH-3T3 mouse fibroblasts transfected with human IGF-IR cDNA, 90 min compound, 10 ng/ml IGF-I for 10 min. The method, then:
In this assay the activity of the compounds of the invention against Insulin-like growth factor I (IGF-I) induced autophosphorylation of the IGF-IGF-IR is determined. The assay is conducted as follows:
The cells which overexpress human IGF-IGF-IR are cultured in Dulbecco's minimal essential (DMEM) medium, containing 10% Fetal Calf Serum (FCS). […] On day 3 the medium is discarded and the cells are incubated for 24 h in minimal medium (DMEM, containing 0.5% FCS). […] The cells are incubated for 90 min in the presence of a compound of formula I. Thereafter the cells are stimulated with 50 μl IGF-I (final concentration of IGF-I in the well=10 ng/ml; IGF-I is obtained from Sigma; Product Code: I3769) and incubated for 10 min at 37° C.
The medium is discarded and the cells are washed twice with PBS/O (=Phosphate-Buffered Saline without CaCl2) and lysed for 15 min on ice with 50 μl/well RIPA-buffer [50 mM Tris.HCl, pH=7.2, 120 mM NaCl, 1 mM EDTA, 6 mM EGTA, 1% NP-40, 20 mM NaF, 1 mM benzamidine, 15 mM sodium pyrophosphate, 1 mM Phenyl methyl sulphonyl fluoride (PMSF) and 0.5 mM Na3VO4] and shaken for 10 min using a 96-well plate shaker (=cellular extracts).
The plates are washed twice with 0.05% (v/v) Tween-20 in Phosphate-Buffered Saline (PBS) and once with nanopure H2O. […] After blocking, the plates are washed once with nanopure H2O.
After incubating the extracts and the secondary antibody for 2 h at 4° C., the extracts are discarded, the plates are washed twice with 0.05% (v/v) Tween-20 in PBS and once with nanopure water.
90 μl/well AP substrate (CDP-Star; obtained from Tropix; Cat. No.: MS100RY) are then added and the plates are incubated for 45 min at RT in the dark, followed by measuring AP activity in a Packard Top Count Microplate Scintillation Counter. The IC50 values for the compounds of formula I are calculated via linear regression analysis using the GraphPad In-stat program (GraphPad Software, USA).
Test for activity against IGF-I induced IGF-IR autophosphorylation using the cellular “Capture ELISA” test
The cellular “Capture ELISA” test is carried out as described above.
(ELISA stands for enzyme-linked immunosorbent assay.)

As to `CCCNC(=O)NC[C@H]1C[C@H](n2cc(-c3cccc(OCc4ccccc4)c3)c3c(N)ncnc32)C1` [Example 28, trans-1-{3-[4-Amino-5-(3-benzyloxy-phenyl)-pyrrolo[2,3-d]pyrimidin-7-yl]-cyclobutylmethyl}-3-propyl-urea], the IC50 came out at 50 nM. This lies in the double-digit nanomolar range.
